# Earlier results as cited in patent US7632519B2, “TRPV1 agonist compounds, formulations, prodrugs, methods for using the same” (NeurogesX, Inc., priority 2005, dated 2009).
# Settings: oral dose levels of up to 2 mg/kg, humans
smiles,measurement,value
COc1cc(CNC(=O)CCCC/C=C/C(C)C)ccc1O [capsaicin],adverse effects after oral dosing,without reported adverse effects
